This note sets out measurements from ChEMBL document CHEMBL1152026, “Phosphonamidates and phosphonamidate esters as HIV-1 protease inhibitors” (Bioorg Med Chem Lett, 1991).

Series [1] deals with T1, Human immunodeficiency virus type 1 protease (Human immunodeficiency virus 1, UniProt Q72874). Nature of the series: Compound was evaluated for its binding affinity against HIV-1 protease.
In series [2] the target is T1, Human immunodeficiency virus type 1 protease. Nature of the series: Compound was evaluated for its inhibitory activity against HIV-1 protease.
A short description of series [3]: The half-life period was determined. The class given is ADME.

As usually defined, the Ki is the equilibrium dissociation constant of an inhibitor or competing ligand from its target. High values mean weaker binding, low ones tighter binding. What is called IC50 is the concentration that gives 50% inhibition. Take `COP(=O)(C(Cc1ccccc1)NC(=O)C(F)(F)F)N1CCC[C@H]1C(N)=O` (stereo not given in full): the affinity in series [1] corresponds to a Ki of 44 µM. Moreover, the IC50 in series [2] was 103 µM.
The term half-life denotes the time in which the quantity being followed falls by half. The low end stands for fast loss, the high end for slow loss. In series [1], `NC(=O)[C@@H]1CCCN1P(=O)(O)C(Cc1ccccc1)NC(=O)C(F)(F)F` (stereo not given in full) showed a Ki of 52 µM. Moreover, the IC50 in series [2] was 121 µM. Further, the half-life in series [3] is 5 h.
Taken in the same sequence, the figures for `NC(=O)[C@H](Cc1ccccc1)NP(=O)(O)C(Cc1ccccc1)NC(=O)C(F)(F)F` (stereo not given in full) were 45 µM, 105 µM and 30 h.
In turn, `COP(=O)(N[C@@H](Cc1ccccc1)C(N)=O)C(Cc1ccccc1)NC(=O)C(F)(F)F` (stereo not given in full) gave a Ki in series [1] of 80 µM. The IC50 in series [2] stood at 184 µM.
